Measured values published in PubChem BioAssay (NCI).
“And” between values parts separate entries of the source, which are not always exact repeats. Equal entries are not always repeated.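 Results reflect a 48-hour exposure of cells in 96-well plates to compound at five concentrations. GI50: concentration for 50% inhibition of growth. TGI: total growth inhibition.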

How the values were obtained:
Experiment in all cases: DTP human tumour cell line panel, 48 h
MDA-MB-435 = tested on: MDA-MB-435
EKVX NSCLC = tested on: EKVX NSCLC
PC-3 prostate = tested on: PC-3 prostate
HCC-2998 colon = tested on: HCC-2998 colon
TK-10 renal = tested on: TK-10 renal
NCI-H522 lung = tested on: NCI-H522 lung
SF-268 CNS = tested on: SF-268 CNS
ACHN renal = tested on: ACHN renal
NCI-H23 lung = tested on: NCI-H23 lung
NCI/ADR-RES ovarian = tested on: NCI/ADR-RES ovarian

Row | SMILES | TGI (MDA-MB-435) | GI50 (EKVX NSCLC) | TGI (EKVX NSCLC) | TGI (PC-3 prostate) | GI50 (HCC-2998 colon) | TGI (HCC-2998 colon) | GI50 (TK-10 renal) | TGI (TK-10 renal) | GI50 (NCI-H522 lung) | TGI (NCI-H522 lung) | TGI (SF-268 CNS) | GI50 (ACHN renal) | TGI (ACHN renal) | GI50 (NCI-H23 lung) | TGI (NCI-H23 lung) | GI50 (MDA-MB-435) | GI50 (PC-3 prostate) | GI50 (NCI/ADR-RES ovarian) | TGI (NCI/ADR-RES ovarian) | GI50 (SF-268 CNS)
1 | Cc1ccc2oc(=O)c3c(O)c4cccc(OC5OC(C)C6O[C@@H](c7ccccc7)OC6C5OC5OC(C)C(O)C(O)C5O)c4c4oc(=O)c1c2c34 (some centres not stated) | 1.9 µM | 0.519 µM | 4.09 µM and 2.55 µM | 1.4 µM | 0.0747 µM | 1.72 µM | 461 nM | 3.81 µM and 8.95 µM | 104 nM | 0.294 µM and 1.38 µM | 1.59 µM and 1.71 µM | 0.0559 µM | 1.14 µM and 0.439 µM | 30.7 nM | 0.276 µM | – | – | – | – | –
2 | O=C(O)COc1ccc(OCC(=O)O)cc1 | 16.4 µM | 6.43 µM | 74.4 µM | 17.2 µM | 1.5 µM | 6.82 µM | – | – | 302 nM | 3.22 µM | 13.5 µM | 0.522 µM | 4.02 µM | 513 nM | 3.09 µM | 3.36 µM | 2.03 µM | 56.6 µM | > 100 µM | 0.584 µM
3 | COc1ccc(Nc2ncnc3ccc(-c4cncc(NS(C)(=O)=O)c4)cc23)cc1Cl | 15.3 µM | 1.99 µM | 6.82 µM | 16.6 µM | 4.03 µM | 15.4 µM | – | – | 1180 nM | 4.08 µM | 16.4 µM | 4.92 µM | > 100 µM | 2660 nM | 15 µM | 3.19 µM | 2.83 µM | 21.4 µM | 81.5 µM | 2.3 µM
4 | COc1ccc(CSC2=C(C#N)C(=O)NC3(CCCCC3)S2)cc1 | 38.2 µM | – | > 100 µM | > 100 µM | – | 62.4 µM | – | > 100 µM | – | 97.2 µM | > 87.4 µM | – | > 100 µM | – | > 100 µM | – | – | – | > 100 µM | –
5 | CC(C)C[C@H](NC(=O)Cn1cccc(CNC(=O)c2ccccc2)c1=O)B(O)O | 0.355 µM | – | – | > 59.1 µM | 0.893 µM | 2.57 µM | 550 nM | 4.75 µM | 377 nM | 2.3 µM | 2.95 µM | 0.626 µM | > 100 µM | 1050 nM | > 100 µM | 0.158 µM | 3.08 µM | > 69.1 µM | > 100 µM | 0.4 µM
6 | COc1c(OC)c(OC)c2c(=O)cc(-c3ccc(OC(C)C)cc3)oc2c1OC | > 53.5 µM | – | > 54.9 µM | > 100 µM | – | > 53.2 µM | – | > 53.9 µM | – | > 58.2 µM | > 51.8 µM | – | > 55.8 µM | – | > 56.5 µM | – | – | – | 61.6 µM | –
7 | O=C1CC(c2cccc(Cl)c2)Oc2ccccc21 (configuration not stated) | 38.1 µM | – | 43.7 µM | 30.4 µM | – | 35.7 µM | – | – | – | – | 50.6 µM | – | 31.7 µM | – | 24.3 µM | – | – | – | 48.9 µM | –
8 | CCC[CH2][Sn]([CH2]CCC)([CH2]CCC)/[C](=C/[Si](C)(C)c1ccccc1)c1ccc2c(c1)OCO2 | 31.3 µM | 15.2 µM | 50.7 µM | > 100 µM | – | – | 33800 nM | 99.1 µM | 9710 nM | > 100 µM | 98.4 µM | 18.4 µM | 36.2 µM | 25600 nM | 92.9 µM | 15.7 µM | 31.4 µM | 26.2 µM | 86.3 µM | 10.7 µM
9 | O=C1NC(=O)C(c2cccc(Cl)c2)=C1Nc1ccc(Cl)c(C(=O)O)c1 | > 25 µM | > 25 µM | > 25 µM | > 25 µM | > 25 µM | > 25 µM | > 25000 nM | > 25 µM | > 25000 nM | > 25 µM | > 25 µM | > 25 µM | > 25 µM | > 25000 nM | > 25 µM | > 25 µM | > 25 µM | > 25 µM | > 25 µM | > 25 µM
10 | O=C1OC(=O)C23CSCC12C1C=CC3O1 (configuration not stated) | – | – | > 100 µM | – | – | > 100 µM | – | > 100 µM | – | > 100 µM | > 100 µM | – | > 100 µM | – | > 100 µM | – | – | – | – | –
11 | FC(F)c1ncc(-c2ccc(C(F)(F)F)cc2)c(NC2CCCCCC2)n1 | > 10 µM | – | – | > 10 µM | > 10 µM | > 10 µM | > 10000 nM | > 10 µM | > 10000 nM | > 10 µM | > 10 µM | > 10 µM | > 10 µM | > 10000 nM | > 10 µM | > 10 µM | > 10 µM | > 10 µM | > 10 µM | > 10 µM
12 | CC(C)(C)c1ccc(C2CC(=O)C3=C(C2)Nc2ccccc2N(C(=O)c2ccccc2Cl)C3c2ccc(F)cc2)cc1 (configuration not stated) | > 100 µM | – | – | > 100 µM | > 100 µM | > 100 µM | – | – | – | – | > 100 µM | > 100 µM | > 100 µM | > 100000 nM | > 100 µM | > 100 µM | 7.01 µM | > 100 µM | > 100 µM | > 100 µM
13 | CCCC(O)c1cn(-c2cccc(S(=O)(=O)O)c2)nn1 (configuration not stated) | – | – | > 100 µM | – | – | > 100 µM | – | > 100 µM | – | > 100 µM | > 100 µM | – | > 100 µM | – | > 100 µM | – | – | – | – | –
14 | COc1cc(F)c(F)cc1C(=O)c1cnc(NC2CCN(S(C)(=O)=O)CC2)nc1N | > 25 µM | – | – | > 25 µM | 4.32 µM | > 25 µM | 2920 nM | 19.3 µM | 4670 nM | > 25 µM | 20 µM | 3.19 µM | > 23.6 µM | 2620 nM | > 18 µM | 3.55 µM | 2 µM | 6.48 µM | > 25 µM | 5.65 µM
15 | CN(C)C=N[C@@H](C(=O)O)c1ccccc1 | > 100 µM | – | > 100 µM | > 100 µM | – | > 100 µM | – | > 100 µM | – | – | > 100 µM | – | > 100 µM | – | > 100 µM | – | – | – | > 100 µM | –
16 | COC(=O)c1onc(C2OC(C)(C)OC2C(O)COC(c2ccccc2)(c2ccccc2)c2ccccc2)c1C(=O)OC (configuration not stated) | > 100 µM | – | > 100 µM | > 100 µM | – | > 100 µM | – | > 100 µM | – | > 100 µM | > 100 µM | – | > 100 µM | – | > 100 µM | – | – | – | – | –
